The results in this text go back to paper PMC6424956, “A MALDI-TOF-based Method for Studying the Transport of BBB Shuttles—Enhancing Sensitivity and Versatility of Cell-Based In Vitro Transport Models” (Scientific Reports, 2019).

Data set [1] relates to in vitro human model of the BBB (brain-like endothelial cells from human cord blood-derived hematopoietic stem cells co-cultured with bovine pericytes). Kind of data set: In vitro human BBB cell-based model transport assay.
Description: The aforementioned peptides were assayed as in the other BBB model using either Ringer-HEPES buffer (the one commonly used in these assays) or supplemented ECM medium. The use of medium in this assay allows (1) the extension of the incubation time and (2) the use of more similar conditions to those found physiologically.
Endothelial cells and pericytes were defrosted in gelatin-coated Petri dishes (Corning). Pericytes and endothelial cells were cultured in DMEM pH 6.8 or in supplemented endothelial cell growth medium (Sciencells), respectively. After 48 h, pericytes (50,000 cells/well) and endothelial cells (80,000 cells/well) were seeded in gelatin-coated 12-well plates or in Matrigel-coated 12-well Transwell inserts (Corning), respectively. Medium was changed every 2–3 days and assays were performed 7–8 days after seeding. […] LY fluorescence was measured in a 96-well plate with a Fluoroskan Ascent Microplate Fluorometer (Thermo Fisher Scientific). Compounds were dissolved in Ringer-HEPES at a concentration of 200 µM. Then, 500 µL of the compound and 1,500 µL of Ringer-HEPES alone were introduced in the apical or in the basolateral compartments, respectively. The plates were set on at 37 °C for 2 h. The solutions from both compartments were then recovered and quantified by HPLC and identified by MALDI-TOF.
Data set [2] relates to in vitro bovine BBB cell-based model. Put plainly: In vitro bovine BBB cell-based model transport assay. The conditions noted are these: for Transport (%) MALDI-TOF MS / Transport (%) RP-HPLC-PDA: 200 μM peptide in Ringer-HEPES, 2 h, 37 °C, mean ± SD, n = 3; for Transport (%) MALDI-TOF MS: quantified by MALDI-TOF MS with heavy internal standard; for Transport (%) RP-HPLC-PDA: quantified by RP-HPLC-PDA (220 nm), some values approximate (below LOQ); for Increase in transport compared to the parent peptide (1 L): bovine BBB model, MALDI-TOF MS quantification, transport normalized by parent peptide 1 L.
Description: (§1) Peptides were evaluated through an in vitro bovine BBB cell-based model (Fig. 2a). Transport (T) and permeability (Papp) for all peptides were quantified by RP-HPLC-PDA and by MALDI-TOF MS (Fig. 2). The former method determined transport by applying the ratio between the peak areas integrated in the chromatograms from the acceptor and donor wells, further corrected by the volumes injected and the volumes contained in each well (see Eq. 1). The latter entails the spiking of the heavy version of the peptide as internal standard into an aliquot of the light peptide (Fig. 2b). The MS intensity for light/heavy ratios for acceptor and donor wells is representative of the relative amount of peptide in each well when corrected by their volume (detailed in Eq. 2).1 T=QAI(t)/QDI(t0)×VDI/VAI×VAW/VDW×100(%) where QAI(t) and QDI(t0) account for the integrated area in the HPLC chromatograms of acceptor (at time t = 2 h) and donor (at time t0 = 0) wells, respectively; VDI and VAI are the injected volumes from donor and acceptor wells, respectively; and VAW and VDW are the volumes in each acceptor and donor well, respectively.2 T=QALight(t)/Q^Heavy/QDLight(t0)/(R×Q^Heavy)×VAW/VDW×100(%) QALight(t)/Q^Heavy accounts for the relative amount of the light peptide in the acceptor well (at time t) compared with a prepared dilution of the heavy isomer (at 2 μM). QDLight(t0)/(R×Q^Heavy) determines the relative amount of light peptide in the donor well (at time t = 0) compared with a prepared dilution of the heavy isomer (at 200 μM; i.e. in our case R = 100).
(§2) In general, transport (see Eq. 3) can be described by the total amount of peptide in the acceptor well at time t, QA(t) , divided by the initial amount in the donor well, QD(t0) , while apparent permeability (Papp), widely used in the literature, normalizes transport by the transwell area, volume in donor well and time (see Eq. 4). […] In these cases, an approximate value was determined.
(§3) This assay was an adapted model[5] of the method previously published by Gaillard and de Boer[49]. Before performing the assay, TEER was measured in all transwells (TEER > 100 Ω·cm^2). […] The apical compartment was filled with 200 μL of the solution containing the peptide, and 800 µL of Ringer-HEPES was poured into the basal well. Three replicates of each peptide were assayed. The plate was left for 2 h in the incubator at 37 °C. Finally, the samples were collected and analyzed or frozen until analysis. LY fluorescence was measured in a 96-well plate with a Fluoroskan Ascent Microplate Fluorometer (Thermo Fisher Scientific). Two parameters were determined, namely transport (T (%)) and apparent permeability (Papp(cm/s)). RP-HPLC-PDA (220 nm) and MALDI-TOF MS were used to determine the amounts of peptide in each sample.
(§4) Transport was calculated using Eq. 2. […] Peak-picking and determination of peak area ratios was performed using Data Explorer version 4.5 (Applied Biosystems).

Assay in data set [3]: as above
As to conditions: bovine, 200 μM peptide in Ringer-HEPES, 2 h, 37 °C, mean ± SD, n = 3.
Description: as §1, §2, §3, §4

Data set [4] in a line: Parallel artificial membrane permeability assay (PAMPA). In kind it is in vitro ADME. The conditions noted are these: pig, porcine brain polar lipid extract. The procedure: Passive diffusion was ruled out as the mechanism responsible for transport when the peptides (1 L, 6D, 7 − D and 8D) were assayed by PAMPA, an in vitro physico-chemical model where the transport by passive diffusion of compounds is evaluated through a membrane containing the lipid composition of interest (in our case, a porcine brain polar lipid extract (BPLE) to mimic the BBB lipid barrier). […] Note that when these values fall below 2.0 × 10^−6 cm/s compounds are considered to be poorly transported by passive diffusion.
The PAMPA assay was used to exclude passive diffusion capacity across the BBB. The standard parameter that quantifies transport independently of time and concentrations is effective permeability, Pe=−218.3/tLog(1−2CA(t)/CD(t0))×10^−6cm/s; where t is the running time (4 h), CA (t) is the concentration of the compound in the acceptor well at time t, and CD (t0) is the compound concentration in the donor well before running the PAMPA assay (t0 = 0 h). […] The protocol followed was the same as that previously used by Arranz-Gibert et al.[1]. Permeability is considered excellent with values >4.0 × 10^−6) cm/s, uncertain between 2.0 × 10^−6 and 4.0 × 10^−6 cm/s, and poor with values below 2.0 × 10^−6) cm/s[41].

The nature of data set [5]: Peptide stability in human serum. The conditions noted are these: for Protease resistance (in human serum): result in words. In kind it is in vitro ADME. The procedure: Peptides were dissolved in 1 mL of HBSS buffer/human serum (from human male AB plasma; Sigma-Aldrich) 10:90 (v/v) at a final concentration of 200 µM and incubated at 37 °C for 24 h. Aliquots of 50 µL were extracted at a range of incubation times and treated with 200 µL of cold CH3OH (4 °C) to precipitate serum proteins. After 30 min, samples were centrifuged at 13,000 g and 4 °C for 30 min. Supernatants were analyzed by RP-HPLC-PDA and MALDI-TOF MS, using similar procedures as for the quantification of the in vitro cell-based BBB model.

[6] abbreviates: Papp MALDI-TOF MS, quantified by MALDI-TOF MS with heavy internal standard.
[7] abbreviates: Papp RP-HPLC-PDA, quantified by RP-HPLC-PDA (220 nm).
The mark [8] stands for this setting: 4 h, n = 3, values are Pe · 10^6, read-out: Pe · 10^6 (effective permeability).
The mark [9] stands for this setting: read-out: Permeability values (PAMPA), bound in the text.

Where two headings read alike, the source gives them in different places. Numbered stars: 1 amine (or outer) side, 2 acyl side, 3 side chain; on linkers, the order of the positions; unused ones are H or OH. Square brackets hold non-standard residues; d marks the D form. Peptide text beside a SMILES is read from it. X1 = O=C([C@H]1[C@@H](c2ccccc2)CCN1[*:1])[*:2]; X2 = O=C([C@@H]1[C@H](c2ccccc2)CCN1[*:1])[*:2]; dAla(4-thiazolyl) = N[C@H](Cc1cscn1)C(=O)O; Tic(7-OH) = O=C(O)[C@@H]1Cc2ccc(O)cc2CN1; Phe(4-NH2) = Nc1ccc(C[C@H](N)C(=O)O)cc1; Phe(4-F) = N[C@@H](Cc1ccc(F)cc1)C(=O)O; hCha = N[C@@H](CCC1CCCCC1)C(=O)O

Turning to “Lucifer yellow (LY) lithium salt [reference compound]”, the “Papp of Lucifer Yellow (internal control)” value in data set [1] (50 µM Lucifer Yellow as internal control) is reported as < 15 ·10^−6 cm/s. Further, in data set [2] (20 μM Lucifer yellow lithium salt as control in Ringer-HEPES), the “Papp of Lucifer yellow (control)” value is recorded as < 17 ·10^−6 cm/s.
Turning to `CC[C@H](C)[C@H](NC(=O)[C@H](C)NC(=O)[C@H](Cc1c[nH]cn1)NC(C)=O)C(=O)N1Cc2cc(O)ccc2C[C@H]1C(=O)N1CCC[C@H]1C(=O)N[C@@H](CCCNC(=N)N)C(=O)N[C@@H](Cc1c[nH]cn1)C(N)=O` [Peptide 3L, Ac-HAIxPRH-NH2] (Ac-HAI[Tic(7-OH)]PRH-NH2), in data set [2], the “Transport (%) MALDI-TOF MS” value is recorded as 2.5 ± 1.2% and the “Transport (%) RP-HPLC-PDA” value was determined as 2.0 ± 0.8%. Moreover, the Papp at 2 h, 200 μM in data set [3] (setting [6]) was determined as 21 ± 10 nm/s. Moreover, the Papp at 2 h, 200 μM in data set [3] (setting [7]) stood at 17 ± 6 nm/s.
Turning to `CC[C@@H](C)[C@@H](NC(=O)[C@@H](Cc1ccc(O)cc1)NC(=O)[C@H]1CCCN1C(=O)[C@@H](CCCNC(=N)N)NC(=O)[C@@H](Cc1c[nH]cn1)NC(C)=O)C(=O)N[C@H](C)C(=O)N[C@H](Cc1c[nH]cn1)C(N)=O` [Peptide 6D, Ac-hrpyiah-NH2], the “Transport (%) MALDI-TOF MS” value in data set [2] is listed as 3.1 ± 0.9%. Also, the “Transport (%) RP-HPLC-PDA” value in data set [2] is given as 5.3 ± 1.8%. Further, the Papp at 2 h, 200 μM in data set [3] (setting [6]) came to 26 ± 7 nm/s; in data set [3] (setting [7]), 45 ± 15 nm/s. Besides, the Papp at 4 h in data set [4] (setting [8]) was 3.4 nm/s; in data set [4] (setting [9]) it was < 4 nm/s.
`CC[C@H](C)[C@H](NC(=O)[C@H](C)NC(=O)[C@H](Cc1c[nH]cn1)NC(C)=O)C(=O)N[C@@H](Cc1ccc(O)cc1)C(=O)N1CCC[C@H]1C(=O)N[C@@H](CCCNC(=N)N)C(=O)N[C@@H](Cc1c[nH]cn1)C(N)=O` [Peptide 1L, Ac-HAIYPRH-NH2]: the half-life at 200 µM in data set [5] (male, HBSS buffer/human serum 10:90 (v/v), 200 µM, 37 °C, 24 h, non-linear regression, read-out: t1/2 in human serum (converted)) was 3.3 h. Besides, in data set [2], the “Transport (%) MALDI-TOF MS” value came out at 3.8 ± 1.4%. Moreover, in data set [2], the “Transport (%) RP-HPLC-PDA” value was found to be 2.9 ± 1.4%. Besides, the Papp at 2 h, 200 μM in data set [3] (setting [6]) came to 32 ± 12 nm/s; in data set [3] (setting [7]) it was 25 ± 11 nm/s. The Papp at 4 h is 1.8 nm/s in data set [4] (setting [8]) and < 4 nm/s in data set [4] (setting [9]).
As to `CC[C@H](C)[C@H](NC(=O)[C@H](C)NC(=O)[C@H](Cc1c[nH]cn1)NC(C)=O)C(=O)N[C@@H](Cc1ccc(N)cc1)C(=O)N1CCC[C@H]1C(=O)N[C@@H](CCCNC(=N)N)C(=O)N[C@@H](Cc1c[nH]cn1)C(N)=O` [Peptide 4L, Ac-HAIxPRH-NH2] (Ac-HAI[Phe(4-NH2)]PRH-NH2), the “Transport (%) MALDI-TOF MS” value in data set [2] is listed as 2.1 ± 0.5%. For the same compound, the “Transport (%) RP-HPLC-PDA” value in data set [2] came out at 2.0 ± 0.9%. The Papp at 2 h, 200 μM in data set [3] (setting [6]) is 18 ± 4 nm/s; in data set [3] (setting [7]), 16 ± 8 nm/s.
In the same order, the values of `CC[C@H](C)[C@H](NC(=O)[C@H](C)NC(=O)[C@H](Cc1c[nH]cn1)NC(C)=O)C(=O)N[C@@H](Cc1ccc(F)cc1)C(=O)N1CCC[C@H]1C(=O)N[C@@H](CCCNC(=N)N)C(=O)N[C@@H](Cc1c[nH]cn1)C(N)=O` [Peptide 5L, Ac-HAIxPRH-NH2] (Ac-HAI[Phe(4-F)]PRH-NH2) are 3.1 ± 1.6%, 3.4 ± 1.6%, 26 ± 13 nm/s and 29 ± 13 nm/s.
Take `CC[C@@H](C)[C@@H](NC(=O)[C@@H](Cc1ccc(O)cc1)NC(=O)[C@@H]1[C@H](c2ccccc2)CCN1C(=O)[C@@H](CCCNC(=N)N)NC(=O)[C@@H](Cc1c[nH]cn1)NC(C)=O)C(=O)N[C@H](C)C(=O)N[C@H](Cc1c[nH]cn1)C(N)=O` [7+D, Ac-hrxyiah-NH2] (Ac-[dH][dR][X2][dY][dI][dA][dH]-NH2): in data set [2], the “Transport (%) MALDI-TOF MS” value is reported as 7 ± 2%, the “Transport (%) RP-HPLC-PDA” value is given as 6.8 ± 1.2% and the “Increase in transport compared to the parent peptide (1 L)” value (“Increase in transport” for short) is listed as “two-fold”. Moreover, the Papp at 2 h, 200 μM in data set [3] (setting [6]) was determined as 57 ± 19 nm/s. The Papp at 2 h, 200 μM in data set [3] (setting [7]) is 57 ± 10 nm/s.
Consider `CC[C@@H](C)[C@@H](NC(=O)[C@@H](Cc1ccc(O)cc1)NC(=O)[C@H]1CCCCN1C(=O)[C@@H](CCCNC(=N)N)NC(=O)[C@@H](Cc1c[nH]cn1)NC(C)=O)C(=O)N[C@H](C)C(=O)N[C@H](Cc1c[nH]cn1)C(N)=O` [Peptide 8D, Ac-hrxyiah-NH2], for which, in data set [5], the “Protease resistance (in human serum)” value is recorded as “high resistance to protease degradation”. In data set [2], the “Transport (%) MALDI-TOF MS” value amounted to 7.5 ± 1.0%, the “Transport (%) RP-HPLC-PDA” value amounted to 7.2 ± 0.9% and the “Increase in transport” value is given as “two-fold”. Moreover, in data set [3] (setting [6]), the Papp at 2 h, 200 μM was 63 ± 8 nm/s. This compound had a Papp at 2 h, 200 μM in data set [3] (setting [7]) of 61 ± 8 nm/s. Further, in data set [4] (setting [8]), the Papp at 4 h turned out to be 3.4 nm/s. Moreover, in data set [4] (setting [9]), the Papp at 4 h was < 4 nm/s.
As to `CC[C@@H](C)[C@@H](NC(=O)[C@@H](Cc1ccc(O)cc1)NC(=O)[C@H]1[C@@H](c2ccccc2)CCN1C(=O)[C@@H](CCCNC(=N)N)NC(=O)[C@@H](Cc1c[nH]cn1)NC(C)=O)C(=O)N[C@H](C)C(=O)N[C@H](Cc1c[nH]cn1)C(N)=O` [Peptide 7-D, Ac-hrxyiah-NH2] (Ac-[dH][dR][X1][dY][dI][dA][dH]-NH2), the “Protease resistance (in human serum)” value in data set [5] is given as “high resistance to protease degradation”. For the same compound, the “Transport relative to the parent peptide 1 L (HAI), buffer” value in data set [1] (human BBB model, Ringer-HEPES buffer) is given as “around 1.5 fold”. Besides, the “Transport relative to the parent peptide 1 L (HAI), medium” value in data set [1] (human BBB model, supplemented ECM medium) is given as “eight-”. Besides, the “Transport (%) MALDI-TOF MS” value in data set [2] came to 7 ± 3%. For the same compound, the “Transport (%) RP-HPLC-PDA” value in data set [2] is given as 5.7 ± 1.8%. Besides, the “Increase in transport” value in data set [2] is reported as “two-fold”. The Papp at 2 h, 200 μM in data set [3] (setting [6]) is 60 ± 20 nm/s; in data set [3] (setting [7]), 48 ± 15 nm/s. Moreover, the Papp at 4 h was 3.3 nm/s in data set [4] (setting [8]) and < 4 nm/s in data set [4] (setting [9]).
As to `CC(=O)N[C@@H](Cc1c[nH]cn1)C(=O)N[C@@H](C)C(=O)N[C@@H](CCC1CCCCC1)C(=O)N[C@@H](Cc1ccc(O)cc1)C(=O)N1CCC[C@H]1C(=O)N[C@@H](CCCNC(=N)N)C(=O)N[C@@H](Cc1c[nH]cn1)C(N)=O` [Peptide 2L, Ac-HAxYPRH-NH2] (Ac-HA[hCha]YPRH-NH2), in data set [2], the “Transport (%) MALDI-TOF MS” value amounted to 3.4 ± 0.7% and the “Transport (%) RP-HPLC-PDA” value is on record as 3.9 ± 0.9%. Further, in data set [3] (setting [6]), the Papp at 2 h, 200 μM was determined as 28 ± 6 nm/s. The compound also yielded a Papp at 2 h, 200 μM in data set [3] (setting [7]) of 33 ± 7 nm/s.
With `CC[C@@H](C)[C@@H](NC(=O)[C@@H](Cc1ccc(O)cc1)NC(=O)[C@H]1CCCN1C(=O)[C@@H](CCCNC(=N)N)NC(=O)[C@@H](Cc1cscn1)NC(C)=O)C(=O)N[C@H](C)C(=O)N[C@H](Cc1c[nH]cn1)C(N)=O` [Peptide 9D, Ac-xrpyiah-NH2] (Ac-[dAla(4-thiazolyl)][dR][dP][dY][dI][dA][dH]-NH2), the “Transport (%) MALDI-TOF MS” value in data set [2] is on record as 2.9 ± 1.2%. Moreover, in data set [2], the “Transport (%) RP-HPLC-PDA” value was found to be 4.4 ± 0.5%. The results for the Papp at 2 h, 200 μM in data set [3] (setting [6]) and in data set [3] (setting [7]) were 24 ± 10 nm/s and 37 ± 4 nm/s, respectively.
